Assay results: patent EP4722262A1, “PHOTOCURABLE COMPOSITION, THREE-DIMENSIONAL SHAPED OBJECT, CASTING MOLD, METHOD FOR PRODUCING CURED OBJECT, AND METHOD FOR PRODUCING DENTAL PROSTHESIS” (Mitsui Chemicals, Inc., priority 2023, dated 2025)

Assay: Viscosity at 25°C of manufactured monomers
Format: physicochemical

## C=CC(=O)OCCOC(=O)NCCC(C)CC(C)(C)CNC(=O)OCCOC(=O)C=C (stereo not shown) [SUA-001]
  viscosity at 25°C: 7,100 mPa·s
